Results from US9109048B2, “Inhibition of tumor growth” (priority 1998, dated 2015).
Converted amounts (≈) assume the structure as drawn. Ends that are not written are not given here. Peptide text beside a SMILES is read from it. * marks the point of attachment. Acm = CC(=O)NC*

How the values were obtained:
[1] = tested on: Staphylococcus aureus ATCC 25923; experiment: MIC (minimum inhibitory concentration) test, microdilution; assay type: cell-based; conditions: for MIC S. aureus: ATCC 25923; for Minimum inhibitory concentration (MIC) S. aureus ATCC 25923: Table 1, value in parentheses
Protocol: (§1) The bacterial strains used were: Escherichia coli ATCC 25922 and Staphylococcus aureus ATCC 25923. All strains were stored at −70° C. The bacteria were grown in 2% Bacto Peptone water (Difco 1807-17-4). All tests were performed with bacteria in mid-logarithmic growth phase. Determination of the minimum inhibitory concentration (MIC) of the peptides for bacterial strains were performed in 1% Bacto Peptone water. A standard microdilution technique with an inoculum of 2×10^6 CFU/ml was used. All assays were performed in triplets. Since the peptides are positively charged and therefore could adhere to the plastic wells, we controlled the actual concentration of the peptides in the solution by HPLC. There was no difference between the concentration of the peptides before or after adding the solution to the plastic wells.

[2] = tested on: Escherichia coli ATCC 25922; experiment: as above; assay type: cell-based; conditions: for Minimum inhibitory concentration (MIC) E. coli ATCC 25922: Table 1, value in parentheses; for Mic E-coli: Table 19
Protocol: as §1

CSCC[C@H](NC(=O)[C@H](CCCNC(=N)N)NC(=O)[C@H](Cc1c[nH]c2ccccc12)NC(=O)[C@H](CCC(N)=O)NC(=O)[C@H](Cc1c[nH]c2ccccc12)NC(=O)[C@H](CCCNC(=N)N)NC(=O)[C@H](CCCNC(=N)N)NC(=O)[C@H](CSCNC(C)=O)NC(=O)[C@@H](N)CCCCN)C(=O)N[C@@H](CCCCN)C(=O)N[C@@H](CCCCN)C(=O)N[C@@H](CC(C)C)C(=O)NCC(=O)N[C@@H](C)C(=O)O [LFB 18-31] (H-KC(Acm)RRWQWRMKKLGA-OH; N-terminus and C-terminus assumed)
MIC S. aureus [1]: 200 µg/mL (≈ 104 µM) | Minimum inhibitory concentration (MIC) S. aureus ATCC 25923 [1]: 108 µM (≈ 207 µg/mL) | MIC E. coli ([2]; ATCC 25922): 80 µg/mL | Minimum inhibitory concentration (MIC) E. coli ATCC 25922 [2]: 43 µM (≈ 82.5 µg/mL)

CSCC[C@H](NC(=O)[C@H](CCCNC(=N)N)NC(=O)[C@H](Cc1c[nH]c2ccccc12)NC(=O)[C@H](CCC(N)=O)NC(=O)[C@H](Cc1c[nH]c2ccccc12)NC(=O)[C@H](CCCNC(=N)N)NC(=O)[C@H](CCCNC(=N)N)NC(=O)[C@@H](N)CSCNC(C)=O)C(=O)N[C@@H](CCCCN)C(=O)N[C@@H](CCCCN)C(=O)N[C@@H](CC(C)C)C(=O)NCC(=O)N[C@@H](C)C(=O)O [LFB 19-31] (H-C(Acm)RRWQWRMKKLGA-OH; N-terminus and C-terminus assumed)
Minimum inhibitory concentration (MIC) S. aureus ATCC 25923 [1]: > 150 µM | Minimum inhibitory concentration (MIC) E. coli ATCC 25922 [2]: 120 µM (≈ 215 µg/mL)

CSCC[C@H](NC(=O)[C@H](CCCNC(=N)N)NC(=O)[C@H](Cc1c[nH]c2ccccc12)NC(=O)[C@H](CCC(N)=O)NC(=O)[C@H](Cc1c[nH]c2ccccc12)NC(=O)[C@H](CCCNC(=N)N)NC(=O)[C@H](Cc1ccccc1)NC(=O)[C@H](CSCNC(C)=O)NC(=O)[C@H](CCCCN)NC(=O)[C@@H](N)CCCCN)C(=O)N[C@@H](CCCCN)C(=O)N[C@@H](CCCCN)C(=O)N[C@@H](CC(C)C)C(=O)NCC(=O)N[C@@H](C)C(=O)O [LFB F4K1] (H-KKC(Acm)FRWQWRMKKLGA-OH; N-terminus assumed)
MIC S. aureus [1]: 200 µg/mL (≈ 98.2 µM) | Minimum inhibitory concentration (MIC) S. aureus ATCC 25923 [1]: 100 µM (≈ 204 µg/mL) | MIC E. coli ([2]; ATCC 25922): 20 µg/mL | Minimum inhibitory concentration (MIC) E. coli ATCC 25922 [2]: 10 µM (≈ 20.4 µg/mL)

CSCC[C@H](NC(=O)[C@H](CCCNC(=N)N)NC(=O)[C@H](Cc1c[nH]c2ccccc12)NC(=O)[C@H](CCC(N)=O)NC(=O)[C@H](Cc1c[nH]c2ccccc12)NC(=O)[C@H](CCCNC(=N)N)NC(=O)[C@H](Cc1ccccc1)NC(=O)[C@H](CSCNC(C)=O)NC(=O)[C@H](CCCCN)NC(=O)[C@@H](N)Cc1ccccc1)C(=O)N[C@@H](CCCCN)C(=O)N[C@@H](CCCCN)C(=O)N[C@@H](CC(C)C)C(=O)NCC(=O)N[C@@H](C)C(=O)O [LFB F4] (H-FKC(Acm)FRWQWRMKKLGA-OH; N-terminus and C-terminus assumed)
MIC S. aureus [1]: 200 µg/mL (≈ 97.3 µM) | Minimum inhibitory concentration (MIC) S. aureus ATCC 25923 [1]: 100 µM (≈ 206 µg/mL) | MIC E. coli ([2]; ATCC 25922): 20 µg/mL | Minimum inhibitory concentration (MIC) E. coli ATCC 25922 [2]: 10 µM (≈ 20.6 µg/mL)

PAWRKAFRWAIRMLKKAA [LFB 14-31A2,6,10,17F7I11K16L14R4]
Mic E-coli [2]: 2/5

PAWRKAFRWAWRMLKKAA-OH [LFB 14-31 A2,6,10,17 F7K16L14R4]
Mic E-coli [2]: 2/4

YRMWRWAWRWR-NH2 [LFB 17-27 A7 M3 R2,11 W4,10 Y1 NH2]
MIC E. coli ([2]; ATCC 25922): 5.7 µM | MIC E. coli ([2]; Table 15): 10.0 µg/mL
